One series deals with E. coli ATCC 25922. The series is described as follows: Time-kill curves. Type of series: cell-based, Escherichia coli. The procedure:
(§1) Time-kill curves. The bactericidal action of compounds was also evaluated over time (time-kill curve experiments). A bacterial inoculum of 1×10^5-1×10^7 Colony Forming Units (CFU)/ml was prepared. The inocula were verified and precisely determined by applying 10-μl drops of 10-fold dilutions onto Triptic Soy Agar plates. The CFU were counted after an incubation of 24 h at 35° C. Any experiment showing an inoculum that was more or less than the desired range of CFU/ml was rejected. Time-kill curve experiments were performed in 30 ml of MHB placed in 50-ml shaking flasks over a period of 24 hours. Test compounds and control antibiotics were added at time 0 hour and, at each time point, a sample was removed from flasks and the CFU determined by plate counts as described above. CFU from compound-treated cultures were compared to CFU collected from the control flask without antibiotic. Test compounds and control antibiotics were assayed at the MIC or a multiple of the MIC as determined by a broth microdilution technique as described above.

A further series deals with S. aureus ATCC 29213. The series is described as follows: Time-kill curves. Type of series: cell-based, Staphylococcus aureus. The settings on record: at their respective MIC or a multiple of the MIC. The procedure:
as §1

In series [1] the test system is S. aureus MRSA COL. The series is described as follows: Time-kill curves. The settings on record: data not shown. It is filed as cell-based, Staphylococcus aureus. The method, then:
as §1

For series [2], the system named is B. cereus, B. subtilis and B. atrophaeus. Nature of the series: MIC broth microdilution, Bacillus species. It is filed as cell-based. The conditions noted are these: three Bacillus species (B. cereus, B. subtilis and B. atrophaeus); data not shown. The method, then: Minimal Inhibitory Concentration (MIC) Determination. Bacteria (primary strain panel, TABLE 1). Susceptibility tests were performed following the recommendations from the National Committee for Clinical Standards (NCCLS). The MICs were determined by a broth microdilution technique using a final volume of 100 μl of cation-adjusted Mueller Hinton Broth (MHBCA) and a bacterial inoculum of 10^5-10^6 Colony Forming Units (CFU)/ml. The inocula were verified and precisely determined by applying 10-μl drops of 10-fold dilutions onto Triptic Soy Agar plates. The CFU were counted after an incubation of 24 h at 35° C. Any experiment showing an inoculum that was more or less than 10^5-10^6 CFU/ml was rejected. Control antibiotics and test compounds were prepared at a concentration equivalent to 2-fold the highest desired final concentration. Compounds were then diluted directly in the 96-well microtiter plates by serial 2-fold dilutions using a multichannel pipette. Microtiter plates were incubated during 24 h at 35° C. and growth was recorded by using a microtiterplate reader at 650 nm as well as by visual observation. The MIC was defined as the lowest concentration of compound yielding no visible growth. […] Fastidious bacteria. The medium used for Listeria monocytogenes, Neisseria meningitidis, and Campylobacter jejuni was MHBCA containing 2% laked horse blood. […]
(Broth dilution looks for growth in wells or tubes with falling amounts of substance.)

Series [3] has as its system S. saprophyticus ATCC 15305. Nature of the series: MIC broth microdilution (NCCLS). Type of series: cell-based, Staphylococcus saprophyticus. The conditions noted are these: Staphylococcus saprophyticus, ATCC15305; S. saprophyticus ATCC 15305; read-out: MIC. The method in brief:
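NCCLS broth microdilution; inoculum 10^5-10^6 CFU/ml; 2-fold serial dilutions; 35° C, 24 h; A650 plus visual read. Media: MHBCA (S. saprophyticus, E. faecium), MHBCA + 2% laked horse blood (Listeria), HTM (Haemophilus), the last two under 5% CO2.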

For series [4], the system named is S. aureus MRSA COL. The series is described as follows: MIC broth microdilution (NCCLS). It is filed as cell-based, Staphylococcus aureus. The conditions noted are these: S. aureus MRSA COL. A digest of the protocol: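 MHBCA, 10^5-10^6 CFU/ml, 2-fold serial dilutions, 24 h at 35° C. Growth read at 650 nm and visually. MIC = lowest concentration with no visible growth.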

Another series in a line: Solubility in water. Type of series: physicochemical. The settings on record: read-out: solubility in water (no visible particles). The procedure: Solubility of Compounds V and XV. The extent of solubility of compounds was evaluated in water.
The next series relates to S. aureus strain Newman. Nature of the series: S. aureus model of systemic infection in the mouse. It is filed as in vivo, Staphylococcus aureus. The settings on record: CD-1 female mice, i.p. 10^7 CFU S. aureus Newman; oral gavage 15 mg/kg at 1 hour post-infection; kidneys 5 hours after inoculation; FIG. 3. The procedure:
In vivo efficacy. The antimicrobial activity of compounds was also evaluated in a S. aureus model of systemic infection in the mouse. To produce the systemic infection, CD-1 female mice (20 g) were injected intra-peritoneally with 10^7 CFU of S. aureus strain Newman suspended in 0.5 ml of endotoxin-free PBS containing 5% mucin (w/v). The compounds were administrated by oral gavage (15 mg/kg) at 1 hour post-infection and kidneys harvested and pooled, for each animal, 5 hours after bacterial inoculation. Tissues were homogenized in PBS and homogenates serially diluted and plated for CFU determination.

The next series concerns E. faecalis ATCC 29212. The series is described as follows: MIC broth microdilution (NCCLS). It is filed as cell-based, Enterococcus faecalis. The settings on record: E. faecalis ATCC 29212.
The test system of a further series is B. catarrhalis ATCC 8176. The series is described as follows: Minimal Bactericidal Concentration (MBC). The settings on record: Moraxella catarrhalis, ATCC8176, 99.9% killing. It is filed as cell-based, Branhamella (Moraxella) catarrhalis. The method in brief: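 Bactericidal endpoint follows the MIC read: aliquots of every well without visible growth, no fewer than five, go onto TSA. Incubation lasts exactly 24 h at 35° C. Surviving colonies are then counted.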

The mark [5] stands for this setting: Staphylococcus aureus, MRSA, read-out: MIC.
[6] abbreviates: Enterococcus faecalis, ATCC29212, read-out: MIC.

What is called MIC is the least concentration at which growth counts as inhibited. One may read the solubility as how much of the substance goes into solution per volume. By MBC is commonly meant the lowest tested concentration that kills the bacteria rather than only halting them. A high value points to weaker bactericidal potency.

≈ marks a conversion by molar mass, not a printed value. Like-named read-outs stand apart in the source and are kept apart here. A value given as a limit tells only on which side of the number the result lay.

For the molecule `O=[N+]([O-])c1ccc(C=Cc2nc(Nc3ccc(O)cc3)c3cc(F)ccc3n2)o1` [Compound V, 6-fluoro-2-[2-(5-nitro-2-furyl)vinyl]-4-(p-hydroxyanilino)-quinazoline], the “time to strongly bactericidal action (time-kill)” value in the series with E. coli ATCC 25922 (E. coli ATCC 25922, at the MIC or a multiple of the MIC, FIG. 2) was ≤ 2 h. Further, the “bactericidal action compared with ciprofloxacin (time-kill)” value is “superior to ciprofloxacin” with E. coli ATCC 25922 (E. coli, at their respective MIC or a multiple of the MIC) and “superior to ciprofloxacin” in the series with S. aureus ATCC 29213. The “bactericidal action (time-kill)” value in the series with S. aureus MRSA COL [1] is reported as “similarly bactericidal”. For the same molecule, the MIC in [2] is 0.03 to 0.125 µg/mL (≈ 0.0765 to 0.319 µM); in series [3], 0.015 to 0.03 µg/mL (≈ 0.0382 to 0.0765 µM); with S. aureus MRSA COL [4] (setting [5]) it was 0.015 µg/mL (≈ 0.0382 µM); in the series on E. faecalis ATCC 29212 (listed as Example I compound V), 0.03 µg/mL (≈ 0.0765 µM); with E. faecalis ATCC 29212 (setting [6]), 0.03 µg/mL (≈ 0.0765 µM). Also, the solubility in “Solubility in water” was 250 µg/mL (≈ 637 µM). In the series on S. aureus strain Newman, the “viable bacteria in the kidneys” value was “reduced significantly”. The molecule further displayed an MBC in the series with B. catarrhalis ATCC 8176 of 0.03 µg/mL (≈ 0.0765 µM).
Regarding `O=C1CN(/N=C/c2ccc([N+](=O)[O-])o2)C(=O)N1` [Nitrofurantoin], the MIC is 8 µg/mL (≈ 33.6 µM) in [3], 8 to 16 µg/mL against S. aureus MRSA COL [4], 16 µg/mL (≈ 67.2 µM) in the series with S. aureus MRSA COL [4] (setting [5]) and 8 to 16 µg/mL (≈ 33.6 to 67.2 µM) with E. faecalis ATCC 29212 (setting [6]).

These data come from US7410974B2, “Halogenated Quinazolinyl nitrofurans as antibacterial agents” (Ulysses Pharmaceutical Products, Inc., priority 2003, dated 2008).
